The subject of data set [1] is alveolar epithelial A549 cells. Put plainly: Cell penetration inhibition (Matrigel trans-well), EMT induced by TGF-β1. It counts as cell-based. The settings on record: TGF-β1-treated A549; BCT 10 μM, BCC 0.5 μM; 24 hours; FIG. 3. The procedure:
As EMT progresses, the proliferation and movement of epithelial cells increases, cell penetration increases, and cell morphology changes, thereby confirming EMT inhibitory efficacy and evaluating the degree of expression of mechanism-related factors.
Trans-well inserts (Corning, USA) were coated with Matrigel® (Corning) at 2 mg/L. Dilute A549 cells to about 5×10^5/mL in 200 μl of serum-free media, and TGF-β1, TGF-β1 and sample BCT (10 μM) or TGF-β1 and sample BCC (0.5 μM) was added and dispensed into trans-well inserts. The cells were cultured for 24 hours by dispensing a medium containing 10% serum in the receive chambers. After the culture was completed, the cells remaining in the insert were removed, and the cells penetrating the receiving chamber were stained with crystal violet and photographed under a microscope.

The test system of data set [2] is human lung fetal cells (MRC-5). Description: MTT cytotoxicity assessment. It is filed as cell-based. The following applies: 24 hours and 48 hours, FIG. 1. The procedure: (§1) Using the MTT (3-(4,5-dimethylthiazol-2yl)-2,5-diphenyl-2H-tetrazolium bromide) assay was applied to investigate the effect of TMF (BCT) and catechol (BCC) on cell proliferation. 5×10^3 cells/well were placed in a 96-well plate and incubated for 24 hours at 37° C., 5% CO2 incubator. Then, each sample was treated in each well according to the concentration and then incubated for 24 hours. Then, after washing with PBS, 20 μL of MTT dissolved in PBS and 200 μL of FBS-free DMEM were treated in each well and then incubated for 4 hours under the same conditions after blocking the light. After 4 hours, the culture solution was removed, treated with 200 μL of DMSO (dimethyl sulfoxide), and left at 37° C. for 2 hours, and absorbance was measured at 570 nm using a microplate reader.
(§2) The cell viability after 24 hours and 48 hours is shown in FIG. 1 as a percentage compared to the control group, the untreated sample group.

In data set [3] the test system is human fibroblasts (HDF, Human Dermal Fibroblast). Put plainly: MTT cytotoxicity assessment. The settings on record: 24 hours and 48 hours, FIG. 1. It is filed as cell-based. The procedure: as §1, §2
A further data set deals with muscle cells (C2C12). Put plainly: MTT cytotoxicity assessment. It counts as cell-based. The settings on record: 24 hours and 48 hours, FIG. 1. On the procedure: as §1, §2
The subject of data set [4] is alveolar epithelial A549 cells. Put plainly: Cell morphological changes, EMT induced by TGF-β1. It is filed as cell-based. The following applies: changed by TGF-β1 treatment, BCT 10 μM, BCC 0.5 μM, 48 hours, FIG. 6. On the procedure: A549 cells were seeded on a 60 mm plate at 1×10^5 /mL and cultured for 24 hours. Then, 5 mL of a medium containing TGF-β1, TGF-β1 and sample BCT (10 μM) and/or TGF-β1 and sample BCC (0.5 μM) was added to each well and incubated for another 48 hours. After culturing, the cells were checked under a microscope, and images were taken.

The subject of data set [5] is EMT mechanism-related factors in A549 cells. Put plainly: Western blot of EMT mechanism-related factors. It counts as cell-based. The following applies: BCT 10 μM, BCC 0.5 μM; for expression of E-cadherin: decreased by TGF-β1 treatment; for expression of E-cadherin / expression of Cyr61 / expression of Fibronectin / expression of Integrin β3 / expression of SMA2/3 / expression of Vimentin / expression of α-Sma: FIG. 4; for expression of Cyr61 / expression of Fibronectin / expression of Integrin β3 / expression of SMA2/3 / expression of Vimentin / expression of α-Sma / expression of pAKT / expression of pERK: increased by TGF-β1 treatment; for expression of pAKT / expression of pERK: FIG. 5. On the procedure: 2×10^6 A549 cells were attached to a 100 mm culture vessel for 24 hours, treated with TGF-β1, TGF-β1 and sample BCT (10 μM) and/or TGF-β1 and sample BCC (0.5 μM)) and cultured. After collecting all of the cultured cells, the cell precipitate was dissolved in a cell lysate RIPA lysis buffer (LPS solution, Korea, Seoul), followed by centrifugation at 13,000 rpm for 20 minutes to obtain a supernatant. The total amount of protein was quantified using the BCA Protein assay kit (Thermo. Scientific, Wilmington, DE, USA) solution. After mixing the protein and 6× sample buffer (1 mL of glycerol, 0.5 mL of β- Mercaptoethanol, 3 mL of 10% SDS, 1.25 mL of 1 M Tris-HCl, 1-2 μg of bromophenol blue), electrophoresis was performed on SDS polyacrylamide gel. After transferring to Nitrocellulose Membrane (Millipore, Billerica, MA, USA) and blocking with 5% non-fat skim milk, protein expression levels of related factors were measured using various antibodies, and whether the protein amount was the same was confirmed using actin. Each of the primary antibodies was diluted and reacted at room temperature for 4 hours, washed 3 times with TBST, the secondary antibody was diluted at 1:5,000 and reacted at room temperature for 30 minutes. After washing with TBST, a band was obtained after light emission with ECL solution (LPS solution, Korea, Seoul). The results are shown in FIG. 4 for the Smad-dependent factor and FIG. 5 for the Smad-independent factor.

For data set [6], the system named is alveolar epithelial A549 cells. Description: Cell migration inhibition (scratch), EMT induced by TGF-β1. It counts as cell-based. The following applies: TGF-β1-treated A549; BCT 10 μM, BCC 0.5 μM; 72 hours; FIG. 2. The procedure: As EMT progresses, the proliferation and movement of epithelial cells increases, cell penetration increases, and cell morphology changes, thereby confirming EMT inhibitory efficacy and evaluating the degree of expression of mechanism-related factors. A549 cells were seeded at 1×10^5 cells in 1 mL per well in a 6-well plate and cultured at 37° C. under 5% CO 2 for 24 hours. After 24 hours, a single cell layer was scratched with a 1 mL tip and a medium containing TGF-β1, TGF-β1, and sample BCT (10 μM) or TGF-β1, and sample BCC (0.5 μM) was added to each well. After culturing for 72 hours, the degree of cell migration was confirmed under a microscope, and images were taken.

A further data set concerns cells in BALF. Put plainly: Change in cell number in bronchoalveolar lavage fluid (BALF), pulmonary fibrosis animal model. It counts as in vivo, mice. The following applies: increased in BLM-administered group; FIG. 10. On the procedure:
(§3) The airways of the mice were incised, and bleomycin (3 mg/kg, BLM) was injected into the airways. After injection, the incision site was sutured with nylon thread, samples of BCT and/or BCC were administered daily 24 hours after bleomycin was injected. Mice were raised to 28 days from the start date of the experiment and sacrificed on day 29 to separate the broncho-alveolar lavage fluid (BALF) and lung tissue and used in further experiments.
Pulmonary fibrosis is characterized by an increase in the total number of cells and the percentage of neutrophils in the BALF fluid.
After collecting BALF from each experimental animal group, neutrophils and alveolar macrophages, including total cells, were measured. The method of measuring the total number of cells in BALF, the ratio of neutrophils and alveolar macrophages, etc., is as follows. BALF was mixed with trypan blue in a ratio of 1:1, and then the total number of cells was counted as ×104/BALF 1 mL using a hemocytometer (Fisher Scientific, PA, USA). The prepared BALF was spread on a slide glass and then stained with Diff Quik (manufactured by Sysmex Corporation, USA), the number of neutrophils and alveolar macrophages among a total of 200 cells was counted under a microscope, and the ratio was measured and recorded.

The test system of data set [7] is major markers of pulmonary fibrosis in lung tissue. Put plainly: Western blot of protein expression level using lung tissue, pulmonary fibrosis animal model. It counts as in vivo, mice. The following applies: compared to BLM-induced group; FIG. 9. On the procedure: as §3
Animal models of each control group and the experimental group raised for 28 days were sacrificed, and lung tissue samples and serum samples were obtained from these animal models, respectively, and stored in a deep freezer at −70° C. Western blotting was performed for α-Sma, TGF-β1, Fibronectin, and E-cadherin proteins known as major markers of pulmonary fibrosis.
Lung tissue was put into T-PER buffer (lysis buffer, Thermo. Scientific, Wilmington, DE, USA) as a standard of 500 μL per 50 mg of tissue, and the tissue was homogenized using a homogenizer. The homogenized tissue was centrifuged at 13,000 rpm, and the supernatant was used as a sample for Western blot. The concentration of the tissue homogenate was quantified using a BCA Protein assay kit (Thermo. Scientific, Wilmington, DE, USA) solution. After mixing the protein and 6× sample buffer (1 mL of glycerol, 0.5 mL of β-Mercaptoethanol, 3 mL of 10% SDS, 1.25 mL of 1 M Tris-HCl, 1-2 μg of bromophenol blue), electrophoresis was performed on SDS polyacrylamide gel. After transferring to Nitrocellulose Membrane (Millipore, Billerica, MA, USA) and blocking with 5% non-fat skim milk, protein expression levels of related factors were measured using various antibodies, and whether the protein amount was the same was confirmed using actin. Each of the primary antibodies was diluted and reacted at room temperature for 4 hours, washed 3 times with TBST, the secondary antibody was diluted at 1:5,000 and reacted at room temperature for 30 minutes. After washing with TBST, a band was obtained after light emission with ECL solution (LPS solution, Korea, Seoul).

For another data set, the system named is lung fibrosis. Put plainly: Histopathological examination in bleomycin pulmonary fibrosis animal model. The following applies: BLM 3 mg/kg into airways, samples administered daily; for size of the fibrosis area according to the tissue scoring system (Ashcroft score): Masson's trichrome, graph at bottom of FIG. 8; for size of the increased fibrosis area (H&E staining): lung on day 29, FIG. 8. It counts as in vivo, mice. On the procedure:
The airways of the mice were incised, and bleomycin (3 mg/kg, BLM) was injected into the airways. After injection, the incision site was sutured with nylon thread, samples of BCT and/or BCC were administered daily 24 hours after bleomycin was injected. Mice were raised to 28 days from the start date of the experiment and sacrificed on day 29 to separate the broncho-alveolar lavage fluid (BALF) and lung tissue and used in further experiments. In order to evaluate lung fibrosis, animal models of each control group and experimental group were sacrificed, and the lungs were extracted from these animal models, fixed in 10% neutral buffered formalin (NBF), and then embedded with paraffin to produce tissue sections with a thickness of 2-4 um. After the sections were prepared, Hematoxylin-Eosin staining and Masson's trichrome staining were performed for comparison of histological findings and observed with an optical microscope. H&E staining was performed to evaluate inflammation and epithelial cell hypertrophy due to lung fibrosis, and Masson's trichrome staining was used to evaluate fibrosis using the following tissue scoring method (Scoring system, Ashcroft score). [table]

For the compound `COc1ccc(-c2coc3cc(OC)c(OC)cc3c2=O)cc1` [BCT, 4′,6,7-trimethoxyisoflavone], the “number of cells penetrating into the receiving chamber” value in data set [1] was “decreased”. For the same compound, the “cytotoxicity (cell viability)” value in data set [2] is “did not show any particular cytotoxicity”. Moreover, the “cytotoxicity (cell viability)” value in data set [3] was “did not show any particular cytotoxicity”. In addition, the “cytotoxicity (cell viability)” value with muscle cells (C2C12) was “did not show any particular cytotoxicity”. The cell morphology entry in data set [4] is given as “recovered similarly to the control”. In addition, in data set [5], the “expression of E-cadherin” value was “increased”, the “expression of Cyr61” value is given as “decreased”, the “expression of Fibronectin” value is recorded as “decreased” and the “expression of Integrin β3” value was “decreased”. For the same compound, in data set [5], the “expression of SMA2/3” value is “decreased”, the “expression of Vimentin” value is recorded as “decreased”, the “expression of α-Sma” value is recorded as “decreased” and the “expression of pAKT” value is given as “decreased”. Moreover, the “expression of pERK” value in data set [5] is listed as “decreased”. Moreover, the cell migration entry in data set [6] is “decreased”. Further, in the data set on cells in BALF, the “number of lymphocytes in BALF” value was “significantly decreased”, the “number of neutrophils in BALF” value is recorded as “significantly decreased” and the “total number of cells in BALF” value is listed as “significantly decreased”. Also, in [7], the “E-cadherin expression in lung tissue” value is reported as “increased”, the “expression level of TGF-β1 in lung tissue” value is on record as “decreased”, the “expression level of fibronectin in lung tissue” value is “decreased” and the “expression level of α-SMA in lung tissue” value is reported as “decreased”. For the same compound, in the data set on lung fibrosis, the “size of the fibrosis area according to the tissue scoring system (Ashcroft score)” value is reported as “reduced” and the “size of the increased fibrosis area (H&E staining)” value is given as “reduced”.

With `Oc1ccccc1O` [BCC, 1,2-dihydroxybenzene], the “number of cells penetrating into the receiving chamber” value in data set [1] is recorded as “decreased”. The “cytotoxicity (cell viability)” value in data set [2] was “did not show any particular cytotoxicity”. Moreover, in data set [3], the “cytotoxicity (cell viability)” value is recorded as “did not show any particular cytotoxicity”. Besides, the “cytotoxicity (cell viability)” value with muscle cells (C2C12) is “did not show any particular cytotoxicity”. Also, the cell morphology entry in [4] is reported as “recovered similarly to the control”. In data set [5], the “expression of E-cadherin” value was “increased”, the “expression of Cyr61” value is recorded as “decreased”, the “expression of Fibronectin” value is listed as “decreased” and the “expression of Integrin β3” value is “decreased”. For the same compound, in data set [5], the “expression of SMA2/3” value is reported as “decreased”, the “expression of Vimentin” value is “decreased”, the “expression of α-Sma” value was “decreased” and the “expression of pAKT” value is recorded as “decreased”. Besides, the “expression of pERK” value in data set [5] is recorded as “decreased”. The cell migration result in data set [6] is “decreased”. Also, in the data set on cells in BALF, the “number of lymphocytes in BALF” value is “significantly decreased”, the “number of neutrophils in BALF” value is listed as “significantly decreased” and the “total number of cells in BALF” value is “significantly decreased”. Also, in [7], the “E-cadherin expression in lung tissue” value was “increased”, the “expression level of TGF-β1 in lung tissue” value is “decreased”, the “expression level of fibronectin in lung tissue” value is given as “decreased” and the “expression level of α-SMA in lung tissue” value is “decreased”. Further, in the data set on lung fibrosis, the “size of the fibrosis area according to the tissue scoring system (Ashcroft score)” value was “reduced” and the “size of the increased fibrosis area (H&E staining)” value was “reduced”.

The values are drawn from US12263154B2, “Composition using 4′,6,7-trimethoxyisoflavone and catechol for managing pulmonary fibrosis” (A-CHEMBIO CO., LTD, priority 2020, dated 2025).
